{"source": "patent US5057414A", "about": "“Method for the determination of the activity of serine proteases or serine protease inhibitors” (Behringwerke Aktiengesellschaft, priority 1987, dated 1991)", "key": {"[1]": {"tested_on": "urokinase", "assay": "Comparison Experiment 3: stability of urokinase against chloramine T in the pure buffer system", "format": "biochemical", "method": "(§1) 50 μl of various samples, namely either basic buffer A (1) or PAI-deficient plasma (2) and PAI-rich plasma (3) 20 were incubated with 200 μl of solution C (plasminogen activator reagent) at 23° C. for 10 min. After addition of 500 μl of solution A (basic buffer), 50 μl of chloramine T of various concentrations, 300 μl of solution E (plasmin substrate reagent) and 100 μl of solution F (plasminogen reagent), the mixtures were incubated at 37° C. for 15 min. Substrate conversion was stopped by addition of 100 μl of 8.5 M acetic acid, and the extinction at 405 nm was determined. The oxidizing agent chloramine T used in this experiment was employed in solutions of the following concentrations."}, "[2]": {"tested_on": "PAI/u-PA complex", "assay": "Comparison Experiment 3: stability of the PAI/u-PA complex against chloramine T", "format": "biochemical", "method": "as §1"}, "[3]": {"tested_on": "Plasmin/antiplasmin complexes", "assay": "Comparison Experiment 14b: stability of plasmin/antiplasmin complexes to chloramine T", "format": "biochemical", "conditions": "in the reaction mixture, 37° C., 30 min", "method": "30 pmol of alpha2 -antiplasmin and basic buffer A (control mixture) are incubated with 50 pmol of plasmin in 175 μl of basic buffer A for 5 min (37° C.). Addition of 500 μl of chloramine T of various concentrations in basic buffer A is followed by incubation for 30 min (37° C.), and the detection reaction is started by addition of 200 μl of 2.5 mM chromogenic plasmin substrate H-D-Phe-Tyr-Arg-ANBA in basic buffer A. After 3 min (37° C.), the reaction is stopped by addition of 100 μl of 8.5 M acetic acid, and the change in extinction at 405 nm is determined. No additional plasmin activity is generated even by chloramine T concentrations above 5 mM in the reaction mixture, that is to say plasmin/antiplasmin complexes are oxidation-resistant."}, "[4]": {"tested_on": "human alpha-thrombin", "assay": "Comparison Experiment 13: oxidation resistance of thrombin", "format": "biochemical", "conditions": "500 nmol of chloramine T or 500 times the dose of H202"}, "[5]": {"tested_on": "u-PA/PAI complexes", "assay": "Comparison Experiments 5 and 7: stability of u-PA/PAI complexes in the functional PAI determination", "format": "biochemical", "conditions": "in the reaction mixture; Comparison Experiment 5", "method": "(§2) Preincubation of 50 μl of sample with 200 μl of a variant of solution C (plasminogen activator dissolved in basic buffer U) at 37° C. for five minutes was followed by addition of 200 μl of a variant of plasminogen reagent (F), composed of 100 mM Tris-HCl pH 8.4, crosslinked polypeptides 1%, ^R Triton×100 0.1%, 100 mM NaCl without tran-examic acid, NaN3 0.01 % (basic buffer U) with 10 CTA-U/ml plasminogen and 200 μl of distilled water with 10 mM chloramine T, 3 mM tranexamic acid to the reaction mixture. The mixture was incubated at 37° C. for 5 min, and 500 μl of 0.6 mM chromogenic plasmin substrate HD-Nva-CHA-Lys-pNA in 480 mM NaCl (or, as a substitute, 200 mM CsCl) were added. The resultant linear change in extinction, delta A/min, at 405 nm was followed. The values found for normal plasma were about 0.2/min.\nThe chloramine T concentrations added in the determination method specified in Example 3 were varied from 0 to 9 mmol/1 of reaction mixture. The assayed samples were either a) deficient in functional PAI (=PAI-deficientplasma) or b) rich in functional PAI. An optimum of generated plasmin activity is found on addition of between 1 and 4 mmol/1 chloramine T. The two plasma plots are parallel throughout the range, i.e. u-PA/PAI complexes are stable up to at least 9 mM chloramine T in the reaction mixture (=650 1). […]"}, "[6]": {"tested_on": "plasmin", "assay": "Comparison Experiment 11: effect of chloramine T and/or tranexamic acid on plasmin activity in the functional PAI assay", "format": "biochemical", "conditions": "for delta A/4 min: 405 nm", "method": "as §2, with “followed.” for “followed. The values found for normal plasma were about 0.2/min.”"}, "[7]": {"tested_on": "plasminogen activator inhibitors", "conditions": "Lawrence and Loskutoff, Biochemistry 25, 6351-6355, 1986; cited from earlier work"}, "[8]": {"tested_on": "antithrombin III (AT III)", "assay": "Comparison Experiment 13: oxidative inactivation of antithrombin III", "format": "biochemical", "conditions": "37° C., 15 min preincubation, pH 8.8", "method": "50 pmol of AT III in 50 μl of 50 mM Tris, 100 mM NaCl, 0.1% (w/v) Triton×100, pH 8.8 buffer, are preincubated with increasing quantities of chloramine T or hydrogen peroxide in 50 μl of distilled water at 37° C. for 15 min. Then 3 pmol of human alpha-thrombin, 2.5 IU of heparin and 2 KIU of aprotinin in 500 μl of 100 mM Tris, 150 mM NaCl, pH 8.2, are added, and the mixture is incubated at 37° C. for 5 min. Addition of 500 μl of 0.4 mM H-D-CHA-But-ArgpNA was followed by further incubation for 3 min (37° C.). The reaction was stopped by 100 μl of 8.5 M acetic acid, and the change in extinction at 405 nm was determined."}}}
{"smiles": "Cc1ccc(S(=O)(=O)NCl)cc1", "note": "[chloramine T, Chloramine T]", "values": [{"measurement": "chloramine T concentration attacking urokinase", "setting": "[1]", "result": 1, "unit": "mM"}, {"measurement": "chloramine T concentration at which the PAI/u-PA complex is stable (FIG. 3)", "setting": "[2]", "result": "above 2 mmol/1"}, {"measurement": "chloramine T concentration not resulting in cleavage of the PAI/u-PA complexes", "setting": "[2]; PAI-deficient vs PAI-rich plasma, in reaction mixture", "result": "above 2 mM"}, {"measurement": "chloramine T concentration generating no additional plasmin activity", "setting": "[3]", "result": "above 5 mM"}, {"measurement": "activity of thrombin at the dose inactivating AT III", "setting": "[4]", "result": "without the activity of thrombin being impaired"}, {"measurement": "chloramine T concentration up to which u-PA/PAI complexes are stable", "setting": "[5]", "result": "at least 9 mM"}, {"measurement": "increase in plasmin activity with alpha2-antiplasmin-deficient plasma compared with normal plasma", "setting": "[6]", "result": 20, "unit": "%"}, {"measurement": "delta A/4 min", "setting": "[6]; Normal plasma without alpha2-antiplasmin", "result": 271, "unit": "mA"}, {"measurement": "delta A/4 min", "setting": "[6]; Normal plasma", "result": 225, "unit": "mA"}, {"measurement": "concentration inactivating plasminogen activator inhibitors", "setting": "[7]", "result": "about 10 μM"}, {"measurement": "quantity of chloramine T inactivating 50 pmol of AT III", "setting": "[8]", "result": 500, "unit": "nmol"}]}
